{"source": "patent US7662851B2", "about": "“Use of specific cyklolignans” (Axelar AB, priority 2001, dated 2010)", "key": {"[1]": {"tested_on": "K562/S chronic myeloid leukemia cells", "experiment": "Leukemia cell viability, K562/S", "assay_type": "cell-based, human", "conditions": "72 h", "method": "(§1) The human chronic myeloid leukemia K562/S and K562/Vcr30 lines and the acute myeloid leukemia cell lines HL60/0 and HL60/Nov were obtained from ATCC. The K562/S and […] are wild type (non-resistant) cells, whereas K562/Vcr30 and HL60/Nov are cytostatic-resistant sublines. All leukemia cell lines were cultured in RPMI 1640 medium supplemented with 10% fetal bovine serum and with 2 mM L-glutamine, benzylpenicillin (100 U/ml) and streptomycin (100 μg/ml). The cells were grown in tissue culture flasks maintained at 95% air/5% CO2 atmosphere at 37° C. in a humidified incubator. For the experiments cells were cultured in 60-mm plastic dishes or 96-well plastic plates.\n(§2) Cell proliferation kit II (Roche Inc.) is based on colorimetric change of the yellow tetrazolium salt XTT in orange formazan dye by the respiratory chain of viable cells (Roehm, N W, et al., J Immunol Methods 142:257-265, 1991). Cells seeded at a concentration of 5000/well in 100 μl medium in a 96-well plate were treated with different drugs in the given concentration. After 24 or 48 h the cells were incubated, according to the manufacturer's protocol, with XTT labelling mixture. After 4 h the formazan dye is quantified using a scanning multiwell spectrophotometer with a 495-nm filter. The absorbance is directly correlated with the number of viable cells. The standard absorbance curve was drawn by means of untreated cells seeded at a concentration of from 1000 to 10 000 cells/well with an increasing rate of 1000 cells/well. All standards and experiments were performed in triplicates.\n(§3) Cells of said cell lines were seeded in 96-well plates (25 000 cells/well, medium volume per well was 100 μl), in […] medium supplemented with fetal calf serum. After 24 h picropodophyllin and the derivatives alpha-apopicropodophyllin and beta-apopicropodo-phyllin were added at different concentrations and the cells were incubated for 72 h. Cell viability was then assayed (see above). […] The results are based on 3 different experiments.\n(§4) The leukemia cell lines K562/S, […], HL60/0 and HL60/Nov were cultured in 96-well plates as described in Experiment 7. After 24 h, the cells were treated for 72 h with different concentrations of the anti-cancer agent vincristine, with and without co-incubation with 0.05 μM picropodophyllin. […] Cell viability was then assayed. IC50 values for each inhibitor and cell line are shown below (Table 8). The results are based on 3 different experiments."}, "[2]": {"tested_on": "K562/Vcr30 chronic myeloid leukemia cells", "experiment": "Leukemia cell viability, K562/Vcr30", "assay_type": "cell-based, human", "conditions": "K562/Vcr30, 72 h", "method": "as §1, §2, §3, §4"}, "[3]": {"tested_on": "HL60/Nov acute myeloid leukemia cells", "experiment": "Leukemia cell viability, HL60/Nov", "assay_type": "cell-based, human", "method": "as §1, §2, §3, §4"}, "[4]": {"tested_on": "HL60/0 acute myeloid leukemia cells", "experiment": "Leukemia cell viability, HL60/0", "assay_type": "cell-based, human", "method": "as §1, §2, §3, §4"}, "IGF-1R": {"biological_target": "IGF-1R (Homo sapiens, UniProt P08069)", "sequence (P08069 31-1367)": "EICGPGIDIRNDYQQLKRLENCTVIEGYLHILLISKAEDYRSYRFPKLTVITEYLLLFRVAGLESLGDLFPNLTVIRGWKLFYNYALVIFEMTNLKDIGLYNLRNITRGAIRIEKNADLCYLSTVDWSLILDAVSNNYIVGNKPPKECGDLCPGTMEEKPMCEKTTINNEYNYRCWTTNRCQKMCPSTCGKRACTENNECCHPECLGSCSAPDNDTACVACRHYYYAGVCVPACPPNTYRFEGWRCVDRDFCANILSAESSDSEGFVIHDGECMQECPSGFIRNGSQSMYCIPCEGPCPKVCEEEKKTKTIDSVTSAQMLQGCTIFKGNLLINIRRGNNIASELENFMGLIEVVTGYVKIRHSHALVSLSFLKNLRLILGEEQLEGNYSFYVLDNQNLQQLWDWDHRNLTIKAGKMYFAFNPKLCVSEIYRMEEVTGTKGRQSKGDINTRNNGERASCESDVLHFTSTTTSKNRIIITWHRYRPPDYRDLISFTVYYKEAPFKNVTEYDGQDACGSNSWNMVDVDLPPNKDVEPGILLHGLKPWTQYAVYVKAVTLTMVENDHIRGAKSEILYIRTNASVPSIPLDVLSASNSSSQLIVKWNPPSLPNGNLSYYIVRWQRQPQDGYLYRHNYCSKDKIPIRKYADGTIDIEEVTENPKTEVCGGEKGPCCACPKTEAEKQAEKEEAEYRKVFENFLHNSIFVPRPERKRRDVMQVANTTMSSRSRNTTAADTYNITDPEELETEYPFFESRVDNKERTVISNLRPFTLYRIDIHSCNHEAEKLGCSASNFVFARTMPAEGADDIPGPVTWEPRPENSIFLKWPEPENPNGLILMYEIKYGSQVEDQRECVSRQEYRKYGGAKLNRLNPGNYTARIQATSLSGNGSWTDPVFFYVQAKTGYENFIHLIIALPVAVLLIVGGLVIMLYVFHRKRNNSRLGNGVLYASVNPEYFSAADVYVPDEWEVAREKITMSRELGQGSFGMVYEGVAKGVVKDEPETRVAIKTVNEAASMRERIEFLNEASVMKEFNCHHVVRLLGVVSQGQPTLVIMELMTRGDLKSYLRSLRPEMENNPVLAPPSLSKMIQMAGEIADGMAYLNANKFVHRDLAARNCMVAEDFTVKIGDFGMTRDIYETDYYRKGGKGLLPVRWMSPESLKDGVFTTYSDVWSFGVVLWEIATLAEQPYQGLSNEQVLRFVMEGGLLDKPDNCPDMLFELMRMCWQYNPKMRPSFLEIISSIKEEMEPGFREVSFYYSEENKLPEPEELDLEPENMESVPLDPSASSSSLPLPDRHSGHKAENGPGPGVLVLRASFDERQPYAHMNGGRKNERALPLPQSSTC", "experiment": "Tyrosine phosphorylation of IGF-1R in intact FM55 melanoma cells", "assay_type": "cell-based", "design": "endogenous in cells", "conditions": "for Level of IGF-1R phosphorylation in intact cells: FM55 melanoma cells, 1 h, means of 3 experiments", "method": "Cells were cultured to subconfluency in 6-cm plates, and then fresh medium containing 10% FBS and the desired compounds were added for 1 h. The cells were then lyzed and subjected to immunoprecipitation using specific antibodies. Immunoprecipitates were resolved by sodium dodecyl sulphate polyacrylamide gel electrophoresis (SDS-PAGE) and transferred to nitro-cellulose membranes and incubated with anti-phosphotyrosine antibody. Antibodies to actin (in cell extract) or IGF-1R beta subunit were used as loading controls. After detection the films were scanned for quantification.\nThe isolated cells were then lyzed in 10 ml ice-cold PBSTDS containing protease inhibitors (Carlberg, M., et al., J Biol Chem 271:17453-17462, 1996). 50 μl protein A or G agarose was added in 1 ml sample and incubated for 15 min at 4° C. on an orbital shaker. After centrifugation for 10 min at 10,000 r/min at 4° C. the supernatant was saved. The protein content was determined by a dye-binding assay with a reagent purchased from Bio-Rad. Bovine serum albumin was used as a standard. 15 μl Protein G Plus agarose and 5 μl anti-IGF-1R were added. After a 3 h incubation at 4° C. on an orbital shaker the precipitate was collected by pulse centrifugation in a micro centrifuge at 14,000×g for 10 s. The supernatant was discarded and the pellet was washed 3 times with PBSTDS.\nProtein samples were solved in a 2×-sample buffer containing Laemmli buffer and 0.5% […] and boiled for 5 min at 96° C. Samples were separated by SDS-PAGE with a 4% stacking gel and 7.5% separation gel. Molecular weight markers (Bio Rad, Sweden) were run simultaneously in all experiments.\nFollowing SDS-PAGE the proteins were transferred overnight to nitro-cellulose membranes (Hybond, Amersham, UK) and then blocked for 1 h at room temperature in a solution of 4% skimmed milk powder and 0.02% Tween 20 in PBS, pH 7.5. Incubations with the primary antibodies were performed for 1 h at room temperature, followed by 3 washes with PBS with Tween and incubation with the second antibody for 1 h room temperature. After another 3 washes the membranes were incubated with Streptavidin-labelled horseradish peroxidase for 30 min and then detected using Amersham ECL system (Amersham, UK). The films were scanned by Fluor-S (BioRad).\nFM55 melanoma cells were seeded in 6-cm dishes, at a concentration of 10,000 cells/cm^2 in Minimal Essential Medium supplemented with 10% fetal calf serum (FCS). When the cells reached a density of 65,000 cells/cm^2 in the dishes, they were treated for 1 h with 0.05 μM podophyllotoxin, deoxypodophyllotoxin, picropodophyllin, deoxypicropodophyllin, 4′-demethyl-7-(4,6-O-ethylidene-β-D-glucopyranosyl)epipodophyllotoxin (etoposide) and podophyllotoxin-4,6-O-benzylidene-β-D-glucopyranoside (pf-4,6-O). Etoposide and pf-4,6-O were also administered at 15 μM. The cells were then harvested for assay and quantification of IGF-1R phosphorylation as described in Experiment 1. The values shown in Table 1 represent means of 3 experiments.\nFM55 melanoma cells were cultured in the same way as described in Experiment 1. When reaching a density of 65,000 cells/cm^2 in the dishes, they were treated for 1 h with 0 (control) and 0.05 μM of picropodophyllin and podophyllotoxin, respectively. The cells were then isolated and subjected to immunoprecipitation of the IGF-1R, fibroblast growth factor receptor (FGFR), platelet-derived growth factor receptor (PDGFR), epidermal growth factor receptor (EGFR), insulin receptor (IR) and insulin substrate-1 (IRS-1) using antibodies to respective molecules. IRS-1 is a substrate of IGF-1R, and therefore its phosphorylation is dependent on phosphorylated IGF-1R. Gelelectrophoresis, Western blotting and quantification of the different signals were performed as described above."}, "[5]": {"experiment": "Systemic toxicity, daily intraperitoneal injection in nude mice", "conditions": "for Signs of disease: up to 5 days", "method": "Four to five-week old pathogen-free nude mice (nu/nu) were used and housed within plastic isolators in a sterile facility. […] Experimental treatments with podophyllotoxin, deoxypodophyllotoxin or picropodophyllin were performed by daily intraperitoneal injections of the compound in 100 μl volume of solvent, composed of a mixture of DMSO and physiological saline (8:2). Control mice were treated with the solvent. 3-6 animals were treated in each group. Animals were monitored three times a week for signs of disease and tumor growth. Tumor mass was estimated using the formula (d^2×D)/2, where d and D represent the small and large diameters of the tumor, respectively. The mice were carefully observed for presence of side effects and were sacrificed at the end of the experiments for histological analysis of the lesions. All experiments were performed according to the ethical guidelines for laboratory animal use, provided by institutional ethical committee.\nIn the next experiment we analyzed systemic effects of the drugs by injecting 100 μl intraperitoneally of each compound daily over 5 days. Two doses were injected (7 or 28 mg/kg/d) and 3-6 mice were used for each drug and dose. The mice were checked carefully daily for signs of discomfort, diseases and weight loss."}, "[6]": {"experiment": "Local toxicity, subcutaneous osmotic pumps in nude mice", "assay_type": "in vivo", "conditions": "subcutaneous osmotic pump loaded with 0.25 mg, 7 days", "method": "Control mice were treated with the solvent. 3-6 animals were treated in each group.\nThe first set of experiments was carried out to investigate possible local and systemic toxic effects of podophyllotoxin, deoxypodophyllotoxin and picropodophyllin on nude mice. In the first experiment osmotic pumps loaded with either drug-free solvent, podophyllotoxin (0.25 mg), deoxypodophyllotoxin (0.25 mg) or picropodophyllin (0.25 mg) were implanted subcutaneously in the flank region. The drugs are delivered subcutaneously with a constant flow of 0.6 μl/h over 7 days. The volume of the pumps was 100 μl. After 7 days the mice were killed and the skin and subcutaneous tissue adjacent to the outlet of the pumps were analyzed and scored for tissue reactions by an experienced pathologist. There were 3 mice in each group."}, "[7]": {"conditions": "read-out: IC50 for cell viability"}, "[8]": {"conditions": "72 h, read-out: IC50 for cell viability"}, "[9]": {"conditions": "HL60, 72 h, read-out: IC50 for cell viability"}, "[10]": {"conditions": "Homo sapiens, read-out: IC50 for cell viability, vincristine alone"}}, "note": "Where two headings read alike, the source gives them in different places.", "data": [{"compound": "COc1cc([C@@H]2c3cc4c(cc3C=C3COC(=O)[C@H]32)OCO4)cc(OC)c1OC", "note": "[Alpha-apopicro, α-apopicropodophyllin]", "values": [{"measurement": "IC50", "setting": "[1]; [7]", "result": 40, "unit": "nM"}, {"measurement": "IC50", "setting": "[2]; [7]", "result": 50, "unit": "nM"}, {"measurement": "IC50", "setting": "[3]; [8]", "result": 20, "unit": "nM"}, {"measurement": "IC50", "setting": "[4]; [9]", "result": 20, "unit": "nM"}]}, {"compound": "COc1cc([C@@H]2c3cc4c(cc3C[C@H]3COC(=O)[C@H]32)OCO4)cc(OC)c1OC", "note": "[Deoxypicropodophyllin, deoxypicropodophyllin]", "values": [{"measurement": "Level of IGF-1R phosphorylation in intact cells", "setting": "IGF-1R; 0.05 μM", "result": 5, "unit": "% OD"}]}, {"compound": "COc1cc([C@@H]2c3cc4c(cc3C[C@H]3COC(=O)[C@@H]32)OCO4)cc(OC)c1OC", "note": "[Deoxypodophyllotoxin, deoxypodophyllotoxin]", "values": [{"measurement": "Surviving mice/Investigated mice", "setting": "[5]; 7 mg/kg/d i.p., 1 d", "result": "3/3"}, {"measurement": "Surviving mice/Investigated mice", "setting": "[5]; 7 mg/kg/d i.p., 2 d", "result": "3/3"}, {"measurement": "Surviving mice/Investigated mice", "setting": "[5]; 7 mg/kg/d i.p., 3 d", "result": "3/3"}, {"measurement": "Surviving mice/Investigated mice", "setting": "[5]; 7 mg/kg/d i.p., 4 d", "result": "3/3"}, {"measurement": "Surviving mice/Investigated mice", "setting": "[5]; 7 mg/kg/d i.p., 5 d", "result": "3/3"}, {"measurement": "Surviving mice/Investigated mice", "setting": "[5]; 28 mg/kg/d i.p., 1 d", "result": "6/6"}, {"measurement": "Surviving mice/Investigated mice", "setting": "[5]; 28 mg/kg/d i.p., 2 d", "result": "4/6"}, {"measurement": "Surviving mice/Investigated mice", "setting": "[5]; 28 mg/kg/d i.p., 3 d", "result": "0/6"}, {"measurement": "Signs of disease", "setting": "[5]; high dose (28 mg/kg/d) i.p. daily", "result": "serious disease or death"}, {"measurement": "Signs of disease", "setting": "[5]; low dose (7 mg/kg/d) i.p. daily", "result": "serious signs of disease"}, {"measurement": "Level of IGF-1R phosphorylation in intact cells", "setting": "IGF-1R; 0.05 μM", "result": 2, "unit": "% OD"}, {"measurement": "Local tissue reactions", "setting": "[6]", "result": "light damages"}]}, {"compound": "COc1cc([C@@H]2c3cc4c(cc3[C@@H](O[C@@H]3O[C@@H]5CO[C@@H](C)O[C@H]5[C@H](O)[C@H]3O)[C@H]3COC(=O)[C@H]23)OCO4)cc(OC)c1O", "note": "[Etoposide, 4′-demethyl-7-(4,6-O-ethylidene-β-D-glucopyranosyl)epipodophyllotoxin]", "values": [{"measurement": "Level of IGF-1R phosphorylation in intact cells", "setting": "IGF-1R; 0.05 μM", "result": 102, "unit": "% OD"}, {"measurement": "Level of IGF-1R phosphorylation in intact cells", "setting": "IGF-1R; 15 μM", "result": 105, "unit": "% OD"}]}, {"compound": "COc1cc(C2c3cc4c(cc3C(OC3OC5COC(c6ccccc6)OC5C(O)C3O)C3COC(=O)C23)OCO4)cc(OC)c1OC", "note": "[Pf-4,6-O, podophyllotoxin-4,6-O-benzylidene-β-D-glucopyranoside]", "values": [{"measurement": "Level of IGF-1R phosphorylation in intact cells", "setting": "IGF-1R; 0.05 μM", "result": 100, "unit": "% OD"}, {"measurement": "Level of IGF-1R phosphorylation in intact cells", "setting": "IGF-1R; 15 μM", "result": 102, "unit": "% OD"}, {"measurement": "Effect on IGF-1R", "setting": "IGF-1R; stated in description", "result": "completely disappeared"}]}, {"compound": "CC[C@]1(O)C[C@H]2CN(CCc3c([nH]c4ccccc34)[C@@](C(=O)OC)(c3cc4c(cc3OC)N(C=O)[C@H]3[C@@](O)(C(=O)OC)[C@H](OC(C)=O)[C@]5(CC)C=CCN6CC[C@]43[C@@H]65)C2)C1", "note": "[Vincristine, vincristine, reference compound]", "values": [{"measurement": "IC50", "setting": "[1]; [10]", "result": 1.6, "unit": "nM"}, {"measurement": "IC50", "setting": "[2]; [10]", "result": 5, "unit": "nM"}, {"measurement": "IC50", "setting": "[3]; Homo sapiens, HL-60, 72 h, read-out: IC50 for cell viability, vincristine alone", "result": 1.2, "unit": "nM"}, {"measurement": "IC50", "setting": "[4]; Homo sapiens, HL-60, HL60/0, 72 h, read-out: IC50 for cell viability, vincristine alone", "result": 0.8, "unit": "nM"}]}, {"compound": "β-apopicropodophyllin [Beta-apopicro]", "values": [{"measurement": "IC50", "setting": "[1]; [7]", "result": 10, "unit": "nM"}, {"measurement": "IC50", "setting": "[2]; [7]", "result": 10, "unit": "nM"}, {"measurement": "IC50", "setting": "[3]; [8]", "result": 10, "unit": "nM"}, {"measurement": "IC50", "setting": "[4]; [9]", "result": 10, "unit": "nM"}]}]}
